Test results reported in PubChem BioAssay (NCI).
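Exposure lasted 48 hours, with cells grown in 96-well plates and compounds tested at five concentrations. GI50: concentration for 50% inhibition of growth. TGI is the concentration that stops growth completely.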

How the values were obtained:
Assay in all cases: NCI tumour cell line growth inhibition, 48 h
A498 renal = tested on: A498 renal
CAKI-1 renal = tested on: CAKI-1 renal
HS 578T breast = tested on: HS 578T breast
NCI-H226 lung = tested on: NCI-H226 lung
NCI-H460 lung = tested on: NCI-H460 lung
SF-268 CNS = tested on: SF-268 CNS
SK-OV-3 ovarian = tested on: SK-OV-3 ovarian
SN12C renal = tested on: SN12C renal
TK-10 renal = tested on: TK-10 renal
T-47D breast = tested on: T-47D breast

SMILES | TGI (A498 renal) | TGI (CAKI-1 renal) | TGI (HS 578T breast) | TGI (NCI-H226 lung) | TGI (NCI-H460 lung) | TGI (SF-268 CNS) | TGI (SK-OV-3 ovarian) | TGI (SN12C renal) | TGI (TK-10 renal) | TGI (T-47D breast) | GI50 (SF-268 CNS)
CN(C)CCCNc1ccc([N+](=O)[O-])c2nc3ccccc3c(N)c12 | 6.92 µM | > 10 µM | > 10 µM | > 10 µM | 1.38 µM | 4.92 µM | 0.987 µM | 7.37 µM | > 10 µM | – | –
CCOC(=O)c1c(N)sc2c1C(C)(C(=O)OCC)CC2 (centres undefined) | 83 µM | – | > 100 µM | > 100 µM | > 100 µM | – | – | > 100 µM | > 100 µM | – | –
S=C1N(/N=C/c2c3ccccc3cc3ccccc23)C(=Nc2ccccc2)C(=Nc2ccccc2)N1c1ccccc1 | – | > 100 µM | > 100 µM | > 100 µM | > 100 µM | > 100 µM | > 100 µM | > 100 µM | > 100 µM | > 100 µM | –
O=C1NC(=S)N/C1=C\c1ccc(Br)s1 | > 100 µM | > 100 µM | > 100 µM | > 100 µM | > 100 µM | > 100 µM | > 100 µM | > 100 µM | > 100 µM | – | –
COc1ccc(-n2c(=O)[nH]n(C(C)=O)c2=O)cc1 | > 100 µM | > 100 µM | > 100 µM | > 100 µM | > 100 µM | > 100 µM | – | > 100 µM | > 100 µM | – | –
Cc1nn(C(=O)c2ccc(Cl)cc2)c2c1C(c1ccccc1[N+](=O)[O-])SC(N)=N2 (centres undefined) | – | > 10 µM | > 10 µM | > 10 µM | > 10 µM | > 10 µM | > 10 µM | > 10 µM | > 10 µM | > 10 µM | –
O=S(Nc1ccccc1)c1cccc(Cl)c1 (centres undefined) | – | > 100 µM | > 100 µM | > 100 µM | > 100 µM | > 100 µM | – | > 100 µM | > 100 µM | – | –
C=CCOC(=O)NC1C(OC(C)[C@@H](NC(=O)OCc2ccccc2)C(=O)OC(C)(C)C)OC(COC(C)=O)C(OC(C)=O)C1OC(C)=O (some centres undefined) | > 100 µM | > 100 µM | > 100 µM | > 100 µM | > 100 µM | > 100 µM | > 100 µM | > 100 µM | > 100 µM | – | –
CC(C)C1=CC23CCC4C(C)(C(=O)O)CCCC4(C)C2CC1C1C(=O)N(c2ccccc2N2C(=O)C4C5CC6C7(C)CCCC(C)(C(=O)O)C7CCC6(C=C5C(C)C)C4C2=O)C(=O)C13 (centres undefined) | 13.6 µM | – | 34.1 µM | 30.2 µM | – | 16.5 µM | – | 24.8 µM | 27.3 µM | 42.5 µM | –
C[C@@H](c1ccccc1)N1CN(C(=O)OCc2ccccc2)C(C)(C)CC1=O | – | > 100 µM | > 100 µM | > 100 µM | > 100 µM | > 100 µM | > 100 µM | > 100 µM | > 100 µM | > 100 µM | –
COC(=O)CNS(=O)(=O)c1ccc(-c2c3nc(c(-c4ccc(S(=O)(=O)NCC(=O)OC)cc4)c4ccc([nH]4)c(-c4ccc(S(=O)(=O)NCC(=O)OC)cc4)c4nc(c(-c5ccc(S(=O)(=O)NCC(=O)OC)cc5)c5ccc2[nH]5)C=C4)C=C3)cc1 | > 100 µM | > 100 µM | > 100 µM | – | > 100 µM | > 100 µM | > 100 µM | > 100 µM | > 100 µM | > 100 µM | –
CC(C)OCC1CC(CC(=O)Nc2nncs2)C(=O)O1 (centres undefined) | – | > 100 µM | > 100 µM | > 100 µM | > 100 µM | > 100 µM | > 100 µM | > 100 µM | > 100 µM | > 100 µM | –
CC(=O)Oc1ccc(-c2cc3ccccc3oc2=O)cc1 | > 100 µM | – | > 100 µM | > 100 µM | > 100 µM | > 100 µM | – | > 100 µM | > 100 µM | > 100 µM | –
CCSc1n/c(=C\c2ccco2)c2nncn12 | – | – | > 100 µM | > 100 µM | – | > 100 µM | > 100 µM | > 100 µM | > 100 µM | – | –
CC(C)(C)OC(=O)N1CCC(C(=O)O)CC1 | > 100 µM | > 100 µM | > 100 µM | – | > 100 µM | > 100 µM | – | > 100 µM | > 100 µM | > 100 µM | –
CCOC(=O)Cn1c(=O)c2nc(SC)sc2n(CC)c1=S | – | – | 95.8 µM | > 100 µM | > 100 µM | > 100 µM | > 100 µM | > 100 µM | > 100 µM | > 100 µM | –
COc1cccc([C@H]2C/C(=N\NC(=O)C(=O)N[C@@H](C)c3ccccc3)c3ccccc3N2)c1 | > 100 µM | 54.1 µM | 0.088 µM | 3.03 µM | – | > 100 µM | > 100 µM | 0.0898 µM | > 100 µM | – | 0.0912 µM
